How the values were obtained:
[1] = tested on: engineered osteochondral constructs; test: IL-1β treatment of engineered osteochondral constructs, MMP ELISA of medium; assay type: cell-based, human
Procedure: (§1) IL-1β treatment in engineered micro-osteochondral constructs. After 4 weeks of differentiation, engineered the osteochondral constructs were treated with IL-1β […], R&D) on the chondral or osseous sides only to investigate the cell/neo-tissue response to pro-inflammatory cytokines and possible communication through the osteochondral construct. The media used in this test were CM without TGF-β3 (chondral) and OM without BMP-2 (osseous) both supplemented with 5 ng/ml There were experimental groups: (1) CM/GM, (2) CM+IL1-1β/GM, (3) CM/GM+IL1-1β. The treatment lasted 7 days, with effluent medium collected and frozen at 1, 7 days for ELISA. After 7 days, the osteochondral constructs were bisected into the chondral and osseous halves and processed for gene expression analysis as described before. In addition to tissue specific gene expression, matrix metalloproteinase 1, 3, 13 were also analyzed.
Enzyme-linked immunosorbent assay (ELISA). Media was collected separately from chondral and osseous constructs, cleared of cell debris via centrifugation (1000×g), and analyzed via IL-1β (Abcam, Cambridge, Mass.), MMP-1 (R&D), MMP-3 (Abcam, Cambridge, Mass.), and MMP-13 (Abcam) ELISAs according to the manufacturers' instructions.
(§2) IL1β treatment on engineered osteochondral tissue. As described above, the microtissue bioreactor presented here, with its two separate medium flow systems and biphasic construct compartments, has the capability for targeted treatment of one (or both) tissue construct(s) with soluble factors. Osseous and chondral components were separately treated with the pro-inflammatory cytokine IL-1β (10 ng/ml) for 7 days (control conditions consisted of untreated osteochondral constructs), and the responses of each of the two components were separately analyzed. Media samples were collected from chondral and osseous components streams at day 1 and 7, and, after day 7, the osteochondral constructs were separated into osseous and chondral components, and each was separately analyzed for gene expression of catabolic genes (MMP-1, MMP-3, MMP-13) and either cartilage markers (Sox9, Col2, aggrecan) (FIG. 20) or bone markers (RUNX2, osteocalcin, BSPII) (FIG. 21). Media samples from the chondral and osseous components stream collected at days 1 and 7 were analyzed via MMP-1, MMP-3, and MMP-13 ELISAs (FIG. 22).

[2] = tested on: engineered osteochondral constructs; test: IL-1β treatment of engineered osteochondral constructs, real time PCR; assay type: cell-based, human; conditions: 10 ng/ml, 7 days
Procedure: Real time PCR. Chondral and osseous constructs were collected separately. To avoid the potential contamination, the bonded margin of each construct was cut away using a razor blade. Total RNA was extracted using Trizol (Invitrogen) following the standard protocol and purified with the RNeasy Plus mini kit (Qiagen, Hilden, Germany). SuperScript III kit (Invitrogen) was utilized with random hexamer primers to complete the reverse transcription. Real-time RT-PCR was performed using the StepOnePlus thermocycler (Applied Biosystems, Foster City, Calif.) and SYBR Green Reaction Mix (Applied Biosystems). Sox 9, Aggrecan (ACN) and collagen type II (COL2A1), RunX2, Osteocalcin (OCN), Bone sialoprotein (BSP II) expression were analyzed. Monolayers of hBMSCs cultured in GM on 2D tissue culture plastic were used as negative controls. Transcript level of 18S rRNA was used as endogenous control: […], Gene expression folder changes were calculated using the Comparative CT (ΔΔCT) method.
as §1, §2

hASCs [3] = test: Chondrogenesis of hASCs in VL-PSL constructs (RT-PCR, hydroxyproline, histology, IHC); assay type: cell-based, human
Procedure: (§3) The fabricated constructs were detached from the platform and washed 3 times to remove uncured polymer solution. The constructs were cultured in control medium (CM, DMEM with 1% L-alanyl-L-glutamine, 55 μM sodium pyruvate, 1× antibiotic-antimycotic, and 1% Insulin-Transferrin-Selenium (ITS)) or chondrogenic medium (CGM, CM supplemented with 10 ng/ml transforming growth factor-β3 (TGF-β3), 100 nM dexamethasone, 50 μM L-ascorbic acid 2-phosphate, and 23 μM L-proline) up to 28 days, which were designated as Control or TGF-β3 group, respectively.
Total RNA of the cells within the constructs was isolated using TRIZOL reagent and purified. Reverse transcription reactions were performed. Real-time PCR was performed with a thermocycler. All sample values were normalized to 18S rRNA using the 2^−ΔΔCt method.
Total collagen content deposited within the constructs was determined by measuring hydroxylproline levels. The constructs (5 mm diameter and 2 mm thickness) were homogenized in water by grinding and hydrolyzed using the same volume of 12N HCl at 120° C. for 3 hours. Hydroxyproline content in constructs was quantitated using a Hydroxyproline Colorimetric Assay Kit.
After 28 days culture, constructs were removed from the incubator, washed twice, and fixed in buffered paraformaldehyde (4%) for 1 day at room temperature. After washed with PBS for 3 times, they were then cryosectioned using a cryostat at 8 μm thickness. For assessment of glycosaminoglycan deposition, the slides were stained with either Alcian Blue or Safranin-O/Fast Green following standard protocols.
Enzymatic antigen retrieval was performed using chondroitinase/hyaluronidase (1 mg/ml and 5 mg/ml) at 37° C. for 30 min, and was suppressed with 1% horse serum in PBS for 45 min. After blocking endogenous peroxidase (3% H2O2 in methanol for 10 min) and nonspecific binding (1% horse serum), slices were incubated with primary antibodies against collage type II overnight at 4° C. After washing, biotinylated secondary antibodies were applied for 30 min. Staining was developed by treating samples with horseradish peroxidase (HRP)-conjugated streptavidin/NovaRED™ peroxidase substrate.

hASCs [4] = assay type: cell-based; conditions: 28 days
Procedure: P3 hASCs were pelleted by centrifugation and the supernatant was completely removed. The polymer solution prepared above was used to re-suspend hASCs at 4×10^6cells/ml, and then the cell-polymer solution was immediately poured into the basement plate of the PSL device for printing with different 3D models as the template.
as §3
At various time points post-fabrication, cell viability was assessed with the Live/Dead Viability/Cytotoxicity kit as examined by epifluorescence microscopy. The percentage of live cells was calculated as the number of green-staining cells divided by the total number of cells (green & red staining cells).

[5] = IL-1β treatment of osseous component
[6] = IL-1β treatment of chondral construct
[7] = day 28, TGF-β3 group versus control group

Substance	osseous construct MMP secretion response ([1]; IL-1β treatment of chondral component, days 1 and 7)	chondral MMP-1, MMP-3 and MMP-13 secretion [1, 5]	chondral MMP-1 response time [1, 5] [days]	chondral MMP-13 response time [1, 5] [days]	MMPs production in the osseous construct [2, 6]	osseous construct expression of osteocalcin and BSPII [2, 6]	chondral construct expression of Sox9, Col2 and aggrecan ([2]; IL-1β treatment of chondral constructs)	chondral construct expression of MMP-1, MMP-3 and MMP-13 [2, 5]	chondral construct expression of Sox9, Col2 and aggrecan ([2]; IL-1β treatment of osseous constructs)	Alcian Blue and Safranin O staining (GAG) (hASCs [3]; day 28, TGF-β3 group)	IHC for collagen type II (hASCs [3]; day 28, TGF-β3 group)	hydroxyproline level (hASCs [3]; day 28, TGF-β3 group) [μg/construct]	Runx2 expression (hASCs [3]; [7])	expression of Sox 9, aggrecan and collagen II (hASCs [3]; [7])	cell viability (hASCs [4]; chondrogenic medium supplemented with TGF-β3) [%]	cell proliferation by MTS assay (hASCs [4]; chondrogenic medium with TGF-β3)
interleukin-1β [IL-1β]	quick yet increased further over time	increases	7	≤ 1	increases	decreases	decreases	increased substantially	decreased	–	–	–	–	–	–	–
transforming growth factor-β3 [TGF-β3]	–	–	–	–	–	–	–	–	–	dense, strong staining	positive staining	21.16±7.15	higher in the control group	significantly higher	77	promoted cell proliferation
